Assay [1] addresses T1, human CCR10 (Homo sapiens, UniProt P46092).
T1 construct: expressed in transfected cells; host or cells: KJMGER8 cells (Namalwa cell-derived line), beta-estradiol-induced; hCCR10G16 cells
T1 sequence (P46092 1-362): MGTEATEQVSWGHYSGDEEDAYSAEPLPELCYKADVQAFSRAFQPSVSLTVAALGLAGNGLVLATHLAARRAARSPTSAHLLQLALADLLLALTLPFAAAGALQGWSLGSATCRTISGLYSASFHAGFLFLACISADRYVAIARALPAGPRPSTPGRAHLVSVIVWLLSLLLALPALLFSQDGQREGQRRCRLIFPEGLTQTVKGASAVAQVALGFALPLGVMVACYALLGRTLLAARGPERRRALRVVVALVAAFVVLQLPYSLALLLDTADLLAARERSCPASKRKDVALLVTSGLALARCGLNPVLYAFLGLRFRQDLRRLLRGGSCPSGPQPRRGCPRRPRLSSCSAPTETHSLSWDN
The assay is described as follows: CCR10 antagonistic effect: calcium assay of human CCR10 (CTACK-induced increase of intracellular calcium in hCCR10G16 cells). Type of assay: cell-based. The note with it: at a concentration of not more than 1000 nmol/L; human CCR10-expressing hCCR10G16 cells, 300 nmol/L CTACK added; read-out: inhibition of increase in the calcium ion concentration. An outline of the steps:
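Inhibition of CTACK-evoked calcium flux (max minus min Fluo-3 fluorescence over ~5 min, FDSS) was calculated against control in β-estradiol-induced human CCR10/Gα16 KJMGER8 cells, after 30 min compound preincubation at 37 °C; CTACK added from a 300 nmol/L solution.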
In general terms: Calcium flux is commonly read through the fluorescence of an indicator in the cells.

The test system of assay [2] is Dinitrofluorobenzene-induced Auricle Edema Reaction in Mouse. In words: Suppressive action on dinitrofluorobenzene-induced auricle edema reaction in mouse. Type of assay: in vivo. The note with it: BALB/c mice; for suppressive action on auricle edema response (in words): topical application in acetone, summary of Table 28; for inhibition in vivo at 1 %: test compound concentration 1% (w/v) in acetone. The method, then: [Experimental Example 2] Suppressive Action on Dinitrofluorobenzene-induced Auricle Edema Reaction in Mouse
BALB/c mice (female, supplied by CHARLES RIVER LABORATORIES JAPAN, INC.) were purchased at the age of 5 weeks. After quarantine and acclimation, mice showing smooth body weight increase and free of abnormality in appearance were used and the test was started at the age of 7 weeks. The mice were housed in a breeding room at room temperature 19-25° C., humidity 30-70%, 12 hr lighting per day (7 a.m.-7 p.m.) with 3 mice in each plastic gauge, and bred on with free ingestion of a commercially available solid feed and water.
Two days before the test, the abdomen of the BALB/c mice was shaved, and the mice were immunized by applying 100 μL of a solution {concentration 0.5% [weight (w)/volume (v) %]} of dinitrofluorobenzene (manufactured by Nacalai Tesque) in acetone (manufactured by Wako Pure Chemical Industries, Ltd.) to the shaved part. The reaction was induced by applying dinitrofluorobenzene-acetone solution [concentration 0.2% (w/v %)] to the front and the back of auricle (10 μL to each, total 20 μL) on day 5 after the immunization. A test compound dissolved in acetone at concentration of 0.1% or 1% (w/v %) was administered by applying same to the front and the back of auricle (10 μL to each, total 20 μL) 1 hr before and 3 hr after induction of the reaction. After application, the applied part was air-dried with a dryer.
The group applying administered with the test compound was taken as a test compound administration group, and the group applying administered with acetone as a solvent instead of the test compound was taken as a solvent administration group. Also, the group free of immunization and reaction induction but applying administered with acetone instead of the test compound was taken as a normal group. The thickness of auricle was measured using a dial thickness gauge (G-1A manufactured by OZAKI MFG. CO., LTD.) immediately before and 24 hr after induction of the reaction, and the difference thereof was taken as auricle edema. The suppression rate (%) of auricle edema was calculated according to the following formula.

Where [3] appears, read: Mus musculus, topical, applied to auricle 1 hr before and 3 hr after induction, measured 24 hr after induction, read-out: auricle edema suppression rate (%).

Each structure is given as a SMILES string.

Turning to `Cc1cc(F)ccc1Nc1cc(S(=O)(=O)Nc2ccon2)ncc1C(=O)N1CCC(c2ccc(F)cc2)CC1` [Compound 11, 4-(4-fluoro-2-methylphenylamino)-5-[4-(4-fluorophenyl)piperidine-1-carbonyl]-N-(isoxazol-3-yl)pyridine-2-sulfonamide], the inhibition at up to 1 µM in assay [1] is at least 50%. The “suppressive action on auricle edema response (in words)” value (from here on “suppressive action”) in assay [2] is recorded as “showed a suppressive action on auricle edema response”. In addition, the inhibition in vivo at 1 % in assay [2] (setting [3]) turned out to be 32%.
As to `Cc1cc(Cl)ccc1Nc1cc(S(=O)(=O)NC(=O)NC2CC2)ncc1C(=O)N1CCC(c2ccc(F)cc2)CC1` [Compound 21, 4-(4-chloro-2-methylphenylamino)-N-(cyclopropylcarbamoyl)-5-[4-(4-fluorophenyl)piperidine-1-carbonyl]pyridine-2-sulfonamide], in assay [1], the inhibition at up to 1 µM is at least 50%. The “suppressive action” value in assay [2] is “showed a suppressive action on auricle edema response”. Also, in assay [2] (Mus musculus, topical, test compound concentration 0.1% (w/v) in acetone, applied to auricle 1 hr before and 3 hr after induction, measured 24 hr after induction, read-out: auricle edema suppression rate (%)), the inhibition in vivo at 0.1 % was determined as 26%.
For `CCNC(=O)NS(=O)(=O)c1cc(Nc2ccc(F)cc2C)c(C(=O)N2CCC(c3ccc(F)cc3)CC2)cn1` [Compound 22, N-(ethylcarbamoyl)-4-(4-fluoro-2-methylphenylamino)-5-[4-(4-fluorophenyl)piperidine-1-carbonyl]pyridine-2-sulfonamide], the inhibition at up to 1 µM in assay [1] is at least 50%. The “suppressive action” value in assay [2] is reported as “showed a suppressive action on auricle edema response”. In assay [2] (setting [3]), the inhibition in vivo at 1 % was determined as 47%.
`Cc1cc(F)ccc1Nc1c(C(=O)N2CCC(c3ccc(F)cc3)CC2)cnc(S(N)(=O)=O)c1Cl` [Compound 25, 3-chloro-4-(4-fluoro-2-methylphenylamino)-5-[4-(4-fluorophenyl)piperidine-1-carbonyl]pyridine-2-sulfonamide]: in assay [1], the inhibition at up to 1 µM is at least 50%. Also, the “suppressive action” value in assay [2] is “showed a suppressive action on auricle edema response”. For the same molecule, the inhibition in vivo at 1 % in assay [2] (setting [3]) worked out at 47%.
As to `NS(=O)(=O)c1ncc(C(=O)N2CCC(c3ccc(F)cc3)CC2)c(Nc2cccc(Cl)c2)c1Cl` [Compound 176, 3-chloro-4-(3-chlorophenylamino)-5-[4-(4-fluorophenyl)piperidine-1-carbonyl]pyridine-2-sulfonamide], the inhibition at up to 1 µM in assay [1] was at least 50%. Also, the “suppressive action” value in assay [2] is reported as “showed a suppressive action on auricle edema response”. The inhibition in vivo at 1 % in assay [2] (setting [3]) amounted to 42%.
The corresponding values for `Cc1ccc(Cl)cc1Nc1c(C(=O)N2CCC(c3ccc(F)cc3)CC2)cnc(S(=O)(=O)Nc2ccon2)c1C` [Compound 232, 4-(5-chloro-2-methylphenylamino)-5-[4-(4-fluorophenyl)piperidine-1-carbonyl]-N-(isoxazol-3-yl)-3-methylpyridine-2-sulfonamide] are at least 50%, “showed a suppressive action on auricle edema response” and 39%.
The corresponding values for `Cc1c(S(=O)(=O)Nc2ccon2)ncc(C(=O)N2CCC(c3ccc(F)cc3)CC2)c1Nc1cccc(F)c1` [Compound 233, 5-[4-(4-fluorophenyl)piperidine-1-carbonyl]-4-(3-fluorophenylamino)-N-(isoxazol-3-yl)-3-methylpyridine-2-sulfonamide] are at least 50%, “showed a suppressive action on auricle edema response” and 24%.
The corresponding values for `Cc1cc(NS(=O)(=O)c2ncc(C(=O)N3CCC(c4ccc(F)cc4)CC3)c(Nc3ccccc3C)c2C)sn1` [Compound 241, 5-[4-(4-fluorophenyl)piperidine-1-carbonyl]-3-methyl-N-(3-methylisothiazol-5-yl)-4-(o-tolylamino)pyridine-2-sulfonamide] are at least 50%, “showed a suppressive action on auricle edema response” and 27%.
Turning to `Cc1c(S(=O)(=O)Nc2ccon2)ncc(C(=O)N2CCC(c3ccc(F)cc3)CC2)c1Nc1ccc(Cl)cc1` [Compound 259, 4-(4-chlorophenylamino)-5-[4-(4-fluorophenyl)piperidine-1-carbonyl]-N-(isoxazol-3-yl)-3-methylpyridine-2-sulfonamide], the inhibition at up to 1 µM in assay [1] is at least 50%. In assay [2], the “suppressive action” value is recorded as “showed a suppressive action on auricle edema response”. Further, in assay [2] (setting [3]), the inhibition in vivo at 1 % is 38%.
Turning to `NS(=O)(=O)c1ncc(C(=O)N2CCC(c3ccc(F)cc3)CC2)c(Nc2ccc(C(F)(F)F)cc2)c1Cl` [Compound 291, 3-chloro-5-[4-(4-fluorophenyl)piperidine-1-carbonyl]-4-[4-(trifluoromethyl)phenylamino]pyridine-2-sulfonamide], the inhibition at up to 1 µM in assay [1] is at least 50%. In addition, in assay [2], the “suppressive action” value is reported as “showed a suppressive action on auricle edema response”. Besides, in assay [2] (setting [3]), the inhibition in vivo at 1 % amounted to 35%.
In the case of `NS(=O)(=O)c1ncc(C(=O)N2CCC(c3ccc(F)cc3)CC2)c(Nc2cc(F)ccc2Cl)c1Cl` [Compound 325, 3-chloro-4-(2-chloro-5-fluorophenylamino)-5-[4-(4-fluorophenyl)piperidine-1-carbonyl]pyridine-2-sulfonamide], the inhibition at up to 1 µM in assay [1] is at least 50%.
Still for that read-out and setting: the result for `Cc1cnc(C)c(Nc2c(C(=O)N3CCC(c4ccc(F)cc4)CC3)cnc(S(N)(=O)=O)c2Cl)c1` [Compound 326, 3-chloro-4-(2,5-dimethylpyridin-3-ylamino)-5-[4-(4-fluorophenyl)piperidine-1-carbonyl]pyridine-2-sulfonamide] reads at least 50%; that for `NS(=O)(=O)c1ncc(C(=O)N2CCC(c3ccc(F)cc3)CC2)c(Nc2ccc(Cl)nc2Cl)c1Cl` [Compound 327, 3-chloro-4-(2,6-dichloropyridin-3-ylamino)-5-[4-(4-fluorophenyl)piperidine-1-carbonyl]pyridine-2-sulfonamide], at least 50%.
On the same count and under the same terms, as for `Cc1ccc(Nc2c(C(=O)N3CCC(c4ccc(F)cc4)CC3)cnc(S(N)(=O)=O)c2Cl)c(F)c1` [Compound 328, 3-chloro-4-(2-fluoro-4-methylphenylamino)-5-[4-(4-fluorophenyl)piperidine-1-carbonyl]pyridine-2-sulfonamide], the figure is at least 50%; as for `Cc1cc(S(C)(=O)=O)ccc1Nc1c(C(=O)N2CCC(c3ccc(F)cc3)CC2)cnc(S(N)(=O)=O)c1Cl` [Compound 329, 3-chloro-5-[4-(4-fluorophenyl)piperidine-1-carbonyl]-4-[2-methyl-4-(methylsulfonyl)phenylamino]pyridine-2-sulfonamide], at least 50%; as for `NS(=O)(=O)c1ncc(C(=O)N2CC(c3ccc(F)cc3)C2)c(NC2(c3ccccc3)CC2)c1Cl` [Compound 330, 3-chloro-5-[3-(4-fluorophenyl)azetidine-1-carbonyl]-4-(1-phenylcyclopropylamino)pyridine-2-sulfonamide], at least 50%.
For the molecule `Cc1ccccc1Nc1c(C(=O)N2CCC(c3ccc(F)cc3)CC2)cnc(S(N)(=O)=O)c1C` [Compound 331, 5-[4-(4-fluorophenyl)piperidine-1-carbonyl]-3-methyl-4-(o-tolylamino)pyridine-2-sulfonamide], the inhibition at up to 1 µM in assay [1] is at least 50%.

The values above are taken from patent US9701689B2, “Substituted pyridines and pyridazines as CCR10 receptor inhibitors” (KYOWA HAKKO KIRIN CO., LTD., priority 2012, dated 2017).
